Consider eight molecules from patent US6787550B1, “Indole derivatives and their use for the treatment of osteoporosis amongst other applications” (Nikem Research S.r.l., priority 1999, dated 2004).

A value given as a limit tells only on which side of the number the result lay.

Tested on in the first data set: not given
Conditions: not given
Broadly, the melting point is the temperature of the solid-liquid transition. With `CC1(C)CC(NC(=O)c2ccc(-c3cc4cc(Cl)c(Cl)cc4[nH]3)c(OCc3ccccc3)c2)CC(C)(C)N1` [Example 2, 4-(5,6-Dichloro-1H-indol-2-yl)-3-benzyloxy-N-(2,2,6,6-tetramethylpiperidin-4-yl)-benzamide], the melting point amounted to 220 °C.

`CC1(C)CC(NC(=O)c2ccc(-c3cc4cc(Cl)c(Cl)cc4[nH]3)c(O)c2)CC(C)(C)N1` [Example 3, 4-(5,6-Dichloro-1H-indol-2-yl)-3-hydroxy-N-(2,2,6,6-tetramethylpiperidin-4-yl)-benzamide] returned a melting point of over 270 °C.

In turn, `CCCOc1cc(C(=O)NC2CC(C)(C)NC(C)(C)C2)ccc1-c1cc2cc(Cl)c(Cl)cc2[nH]1` [Example 4, 4-(5,6-Dichloro-1H-indol-2-yl)-3-propoxy-N-(2,2,6,6-tetramethylpiperidin-4-yl)benzamide] registered a melting point of over 250 °C.

A further data set has as its system osteoclast proton pump. The conditions noted are these: avian osteoclast membrane vesicles; literature background; cited from earlier work.
Take `CCN1C(=O)C=CC1=O` [N-ethylmaleimide (NEM), N-ethylmaleimide]: the “inhibition of proton transport” value is “inhibited”.

With `Cc1nc2c(OCc3ccccc3)cccn2c1CC#N` [SCH 28080], the “inhibition of proton transport” value is reported as “not inhibited”.

`CO/C1=C\C(C)=C\[C@@H](C)[C@@H](O)[C@@H](C)C/C(C)=C/C=C/[C@H](OC)[C@@H]([C@@H](C)[C@@H](O)[C@H](C)[C@@]2(O)C[C@@H](O)[C@H](C)[C@@H](C(C)C)O2)OC1=O` [bafilomycin A1]: the “inhibition of proton transport” value is “inhibited”.

Take `C[C@@H]1O[C@@H](O[C@H]2C[C@@H](O)[C@]3(CO)[C@H]4[C@H](O)C[C@]5(C)[C@@H](C6=CC(=O)OC6)CC[C@]5(O)[C@@H]4CC[C@]3(O)C2)[C@H](O)[C@H](O)[C@H]1O` [ouabain]: the “inhibition of proton transport” value is recorded as “not inhibited”.

On to `[Na+].[Na+].[Na+].[O]=[V]([O-])([O-])[O-]` [sodium orthovanadate], for which the “inhibition of proton transport” value was “not inhibited”.

The subject of the next data set is osteoclast cultures. The conditions noted are these: literature background; cited from earlier work.
Regarding `CO/C1=C\C(C)=C\[C@@H](C)[C@@H](O)[C@@H](C)C/C(C)=C/C=C/[C@H](OC)[C@@H]([C@@H](C)[C@@H](O)[C@H](C)[C@@]2(O)C[C@@H](O)[C@H](C)[C@@H](C(C)C)O2)OC1=O` [bafilomycin A1], the “inhibition of bone resorption” value was “able to inhibit bone resorption”.
